According to the Deep4Chem optical property database:
Values joined by “and” are separate entries in the source; they are usually repeats but may differ in a detail not shown here. Equal entries are not always repeated. Each block holds one molecule with its values, some of them ahead of it.

Assay: solvent given as SMILES

absorption maximum (in ClCCl): 309.5 nm
SMILES: CCCCCCCCn1cc(-n2c(-c3cc(-c4nc5ccc(C)cc5n4-c4cn(CCCCCCCC)nn4)cc(-c4nc5ccc(C)cc5n4-c4cn(CCCCCCCC)nn4)c3)nc3ccc(C)cc32)nn1

absorption maximum (in C1CCOC1): 346 nm
SMILES: c1cc2ccc1-c1ccc(cc1)-c1ccc(s1)-c1ccc(cc1)-c1ccc(cc1)-c1ccc(s1)-c1ccc(cc1)-c1ccc(cc1)-c1ccc-2s1

absorption maximum (in CCOC(C)=O): 383 nm
SMILES: CCn1ncc2c3c(C#N)c4c5ccccc5n(CC)c4nc3ccc21

SMILES: CC(C)[Si]1(C(C)C)c2cc(C=C(C#N)C#N)ccc2-c2ccc(N(c3ccccc3)c3ccccc3)cc21
absorption maximum (in C1CCCCC1): 484 nm
absorption maximum (in CC#N): 461 nm
absorption maximum (in CCO): 467 nm
absorption maximum (in CCOCC): 467 nm
absorption maximum (in CS(C)=O): 466 nm
absorption maximum (in ClCCl): 481 nm
absorption maximum (in c1ccccc1): 477 nm

absorption maximum (in CC#N): 334 nm
SMILES: Cc1ccc(-c2ccc(/C=C/c3ccc(F)cc3)cn2)nc1

absorption maximum (in C1COCCO1): 530 nm
absorption maximum (in CN(C)C=O): 551 nm
absorption maximum (in CO): 553 nm
absorption maximum (in CS(C)=O): 553 nm
absorption maximum (in O): 546 nm
SMILES: O=C1/C(=C2\Sc3ccc(S(=O)(=O)O)cc3C2=O)Sc2ccc(S(=O)(=O)O)cc21

absorption maximum (in CC(C)O): 537.1 nm
absorption maximum (in CCO): 534 nm
absorption maximum (in CO): 529 nm
absorption maximum (in O): 520 nm
SMILES: Cc1cc2nc3cc(C)c(N)cc3[n+](-c3ccccc3)c2cc1N

absorption maximum (in ClC(Cl)Cl): 524 nm
SMILES: O=Cc1ccc(C#CC(C#Cc2ccc(C=O)s2)=Cc2ccc(C=C(C#Cc3ccc(C=O)s3)C#Cc3ccc(C=O)s3)s2)s1

absorption maximum (in C1CCOC1): 366 nm
absorption maximum (in CC#N): 364 nm
absorption maximum (in CCO): 366 nm
absorption maximum (in CCOC(C)=O): 366 nm
absorption maximum (in CN(C)C=O): 360 nm
absorption maximum (in ClCCl): 372 nm
absorption maximum (in c1ccccc1): 370 nm
SMILES: Cc1ccc([C@@H]2C[C@](O)(c3ccccn3)C[C@](O)(c3ccccn3)[C@H]2C(=O)c2ccc(N(c3ccccc3)c3ccccc3)cc2)cc1

absorption maximum (in ClCCl): 355 nm
SMILES: CC(C)(C)c1ccc2c(c1)c1cc(C(C)(C)C)ccc1n2-c1ccc(C#Cc2ccc3c4ccc(C#Cc5ccc(C=C(C#N)C#N)cc5)cc4n(-c4ccc(C(F)(F)F)cc4)c3c2)cc1

absorption maximum (in ClCCl): 331 nm
SMILES: CCOC(=O)c1c(-c2c(Cl)c3cc(C)ccc3oc2=O)nn(-c2cccc(C)c2)c1C(=O)OCC

absorption maximum (in C1CCCCC1): 287.2 nm
absorption maximum (in C1COCCO1): 290 nm
absorption maximum (in CC#N): 290 nm
absorption maximum (in CC(C)(C)O): 291 nm
absorption maximum (in CC(C)CO): 292.4 nm
absorption maximum (in CC(C)O): 291.6 nm
absorption maximum (in CCOC(C)=O): 290.5 nm
absorption maximum (in CO): 293.6 nm
absorption maximum (in O): 285 nm and 283.2 nm
SMILES: COc1cc(C(=O)O)ccc1O

absorption maximum (in ClCCl): 379 nm
SMILES: O=C(c1sc(-c2ccc(-c3cc(-c4cccs4)c(C(=O)N4CCOCC4)s3)s2)cc1-c1cccs1)N1CCOCC1

absorption maximum (in ClCCl): 301 nm
SMILES: C[Si](C)(C)c1ccc(-c2nc3ccccc3n2-c2ccccc2)cc1

SMILES: c1cc2cc(c1)c1ccc3ccc4ccc(cc4c3c1)c1ccc3ccc4ccc(cc4c3c1)c1cccc2c1
absorption maximum (in Cc1ccccc1): 355 nm

absorption maximum (in CC#N): 302.58 nm
absorption maximum (in CCO): 300.29 nm
absorption maximum (in ClCCl): 304 nm
SMILES: CN(C)c1cc(-c2ccc(C#Cc3ccccc3)cc2)cc2ccccc12

SMILES: CCn1c2ccccc2c2cc(-c3cc(-c4ccc5c(c4)c4ccccc4n5CC)nc(-c4ccc(OC)cc4)n3)ccc21
absorption maximum (in C1CCOC1): 365 nm
absorption maximum (in CCOC(C)=O): 362 nm
absorption maximum (in CN(C)C=O): 369 nm
absorption maximum (in Cc1ccccc1): 363 nm
absorption maximum (in ClCCl): 364 nm

SMILES: CC1(C)OB(c2cc3ccc4cccc5ccc(c2)c3c45)OC1(C)C
absorption maximum (in Cc1ccccc1): 385 nm

absorption maximum (in C1COCCO1): 398 nm
absorption maximum (in CC#N): 397 nm
absorption maximum (in CCCCOCCCC): 398 nm
absorption maximum (in CCOC(C)=O): 396 nm
SMILES: Clc1nc(Nc2ccccc2)nc(Nc2ccc3cc4ccccc4cc3c2)n1

absorption maximum (in CCO): 344 nm
absorption maximum (in ClC(Cl)Cl): 345 nm
SMILES: COc1ccc2c(-c3nc(-c4ccccc4)no3)cc(=O)oc2c1

absorption maximum (in C1CCOC1): 330 nm
SMILES: O=C(c1ccc(N2c3ccccc3Sc3ccccc32)cc1)c1ccc2sc3ccccc3c2c1

absorption maximum (in ClCCl): 495 nm
SMILES: CC1=C(c2ccccc2)Oc2cc3nc4ccccc4nc3c3cccc1c23

SMILES: O=C1NC(=O)C(c2c[nH]c3ccccc23)=C1c1c[nH]c2ccccc12
absorption maximum (in C1CCOC1): 450 nm
absorption maximum (in CC#N): 446 nm
absorption maximum (in CC(C)OC(C)C): 443 nm
absorption maximum (in CCCCOCCCC): 445 nm
absorption maximum (in CCO): 460 nm
absorption maximum (in CCOC(C)=O): 445 nm
absorption maximum (in CN(C)C=O): 454 nm
absorption maximum (in Cc1ccccc1): 447 nm
absorption maximum (in ClCCl): 448 nm

absorption maximum (in C1CCCCC1): 351 nm
SMILES: B1C=Cc2ccc3ccccc3c2N1

absorption maximum (in ClCCl): 340 nm
SMILES: COc1ccc2ccccc2c1C1=CC(c2ccccc2)=C(c2ccccc2)C1

absorption maximum (in ClCCl): 323 nm
SMILES: CCOC(=O)c1c(-c2cc3ccccc3oc2=O)nn(-c2ccc(Cl)cc2)c1C(=O)OCC

absorption maximum (in C1CCOC1): 358 nm
SMILES: N#Cc1c(N2CCCC2)cc(-c2ccccc2)c2c1C(=O)c1ccccc1-2

absorption maximum (in CC#N): 438 nm
absorption maximum (in CC(C)O): 484 nm
absorption maximum (in CCO): 477 nm
absorption maximum (in CCOC(C)=O): 433.4 nm
absorption maximum (in CO): 474 nm
SMILES: Nc1ccc2c(c1)C(=O)c1ccc(N)cc1C2=O

SMILES: Nc1ccc2c(c1)Cc1ccccc1-2
absorption maximum (in C1CCCCC1): 318 nm
absorption maximum (in C1COCCO1): 322 nm
absorption maximum (in CC#N): 325 nm
absorption maximum (in CC(C)O): 317 nm
absorption maximum (in CCCCCC): 318 nm
absorption maximum (in CCCCCCC): 317 nm
absorption maximum (in CCO): 317 nm
absorption maximum (in CCOC(C)=O): 325 nm
absorption maximum (in CCOCC): 318 nm
absorption maximum (in CO): 317 nm
absorption maximum (in ClCCl): 319 nm
absorption maximum (in O): 315 nm

absorption maximum (in CCCCCC): 338 nm
absorption maximum (in CO): 337 nm
absorption maximum (in ClCCl): 340 nm
SMILES: CC(C)c1ccc2ccc3cccc4ccc1c2c34

absorption maximum (in O): 276 nm
SMILES: Cc1ccc(O)cc1

SMILES: CCN1c2ccccc2Sc2cc(/C=C(\C#N)c3ccccc3)ccc21
absorption maximum (in C1CCOC1): 411 nm
absorption maximum (in CC#N): 409 nm
absorption maximum (in CC(C)=O): 410 nm
absorption maximum (in CN(C)C=O): 414 nm
absorption maximum (in CS(C)=O): 418 nm
absorption maximum (in Cc1ccccc1): 412 nm
absorption maximum (in ClCCl): 413 nm

absorption maximum (in CC#N): 557 nm
SMILES: CCCn1c2cccc3oc4cccc5c4[c+](c32)c2c1cccc2n5CCC

absorption maximum (in ClCCl): 301 nm
SMILES: N#Cc1ccc(-n2c(-c3ccc(-c4ccc(-n5c6ccccc6c6ccccc65)cc4)s3)nc3c4ccccc4c4ccccc4c32)c2ccccc12

SMILES: O=c1oc2ccccc2cc1-c1nc2ccccc2o1
absorption maximum (in C1CCOC1): 354 nm
absorption maximum (in C1COCCO1): 357 nm
absorption maximum (in CC1CCCCC1): 356 nm
absorption maximum (in CC#N): 352 nm
absorption maximum (in CC(C)=O): 352 nm
absorption maximum (in CC(C)CO): 353 nm
absorption maximum (in CC(C)O): 354 nm
absorption maximum (in CCOC(C)=O): 352 nm
absorption maximum (in CN(C)C=O): 352 nm
absorption maximum (in CO): 352 nm
absorption maximum (in CS(C)=O): 354 nm
absorption maximum (in Cc1ccccc1): 360 nm
absorption maximum (in ClC(Cl)(Cl)Cl): 360 nm
absorption maximum (in ClC(Cl)Cl): 356 nm
absorption maximum (in OCCO): 354 nm

absorption maximum (in c1ccccc1): 406 nm
SMILES: O=c1oc2ccc3ccc(O)cc3c2nc1-c1ccccc1

SMILES: CC\C=C/C=C/C=C/C=C\CCCCCCCC(=O)O
absorption maximum (in C1COCCO1): 322.7 nm
absorption maximum (in CCCCCC): 318.9 nm
absorption maximum (in CCCCCCCCCC): 320.8 nm
absorption maximum (in CCCCO): 320.6 nm
absorption maximum (in CCO): 319.2 nm
absorption maximum (in CCOCC): 318.8 nm
absorption maximum (in CO): 318.6 nm
absorption maximum (in ClC(Cl)Cl): 324.8 nm
absorption maximum (in c1ccccc1): 325.3 nm

SMILES: CCn1c2ccccc2c2cc(/C=C/c3cc(/C=C/c4ccc5c(c4)c4ccccc4n5CC)nc(SC)n3)ccc21
absorption maximum (in C1CCOC1): 406 nm
absorption maximum (in CCOC(C)=O): 402 nm
absorption maximum (in CN(C)C=O): 413 nm
absorption maximum (in Cc1ccccc1): 405 nm
absorption maximum (in ClCCl): 409 nm

absorption maximum (in ClC(Cl)Cl): 390 nm
SMILES: COc1cc(OC)c2c(c1)c1cc3oc(=O)cc(C)c3cc1c1cc(OC)cc(OC)c12

absorption maximum (in CC1CCCCC1): 293 nm
absorption maximum (in CC#N): 285 nm
absorption maximum (in CCCCCCC): 293 nm
absorption maximum (in CCO): 286 nm
absorption maximum (in CN(C)C=O): 284 nm
absorption maximum (in ClC(Cl)Cl): 285 nm
absorption maximum (in O): 280 nm
SMILES: c1cc(N2CCCC2)ccn1

absorption maximum (in ClCCl): 359 nm
SMILES: CCN(CC)c1ccc2c(c1)oc(=O)c1cc3c(-c4ccccc4)nn(-c4ccccc4)c3nc12

absorption maximum (in C1CCOC1): 323 nm
absorption maximum (in C1COCCO1): 314 nm
absorption maximum (in CC#N): 315 nm
absorption maximum (in CC(C)O): 327 nm
absorption maximum (in CCCCO): 329 nm
absorption maximum (in CCCO): 329 nm
absorption maximum (in CCOC(C)=O): 315 nm
absorption maximum (in CN(C)C=O): 325 nm
absorption maximum (in CO): 327 nm
absorption maximum (in CS(C)=O): 326 nm
absorption maximum (in ClC(Cl)Cl): 311 nm
absorption maximum (in O): 322 nm
SMILES: Cc1cc(=O)c2ccc(N)cc2o1

absorption maximum (in ClCCl): 306.5 nm
SMILES: CCCCCCCCCCCCn1c(-c2cc(-c3nc4ccc(C)cc4n3CCCCCCCCCCCC)cc(-c3nc4ccc(C)cc4n3CCCCCCCCCCCC)c2)nc2ccc(C)cc21

absorption maximum (in ClCCl): 503 nm
SMILES: CCCCC1=C(CCCC)c2cccc3c2c(cc2nc4ccccc4nc23)O1

SMILES: C=CC1CN2CCC1CC2[C@@H](OCc1ccccc1)c1ccnc2ccc(O)cc12 (some centres undefined)
absorption maximum (in C1CCOC1): 338 nm
absorption maximum (in CC#N): 335 nm
absorption maximum (in CCCC#N): 337 nm
absorption maximum (in Cc1ccccc1): 335 nm
absorption maximum (in ClCCl): 334 nm

absorption maximum (in CS(C)=O): 736 nm
SMILES: O=C(O)COc1cccc(-c2c3nc(cc4ccc([nH]4)c(-c4cccc(OCC(=O)O)c4)c4nc(cc5ccc2[nH]5)CC4)CC3)c1

SMILES: CC(C)[Si](C#Cc1c2ccc(C(C)(C)C)cc2c(C#Cc2c3ccc(C(C)(C)C)cc3c(C#Cc3c4ccc(C(C)(C)C)cc4c(C#C[Si](C(C)C)(C(C)C)C(C)C)c4ccc(C(C)(C)C)cc34)c3ccc(C(C)(C)C)cc23)c2ccc(C(C)(C)C)cc12)(C(C)C)C(C)C
absorption maximum (in Cc1ccccc1): 570 nm

SMILES: F[B-]1(F)n2cccc2C(c2ccccc2)=C2C=CC=[N+]21
absorption maximum (in Cc1ccccc1): 503 nm
absorption maximum (in ClCCl): 500 nm
